Entries after “also recorded” stand apart in the source; their conditions may differ.
How the values were obtained:
[1] = tested on: lung cells (TUNEL positive); experiment: TUNEL assay on lung sections after bleomycin; type: in vivo, mice
Description: For TUNEL assay, tissue sections were deparaffinized using standard protocols and permeabilised with proteinase K (10 μg/ml in 10 mM Tris-HCl) for 30 mins at 37° C. Non-specific binding sites were blocked with 1 mg/ml BSA in 50 mM Tris-HCl for 10 mins at 37° C. TUNEL positive cells were detected with Fluorescein In Situ Cell Death Detection Kit (Roche). Nuclei were counterstained with DAPI. To quantitate apoptosis, at least 2 mice per timepoint were examined and a blinded observer counted number of TUNEL positive cells and DAPI positive cells in 4 independent fields/mouse. At least 500 cells were analyzed per condition.

bleomycin-treated mice = experiment: bleomycin-induced lung injury and fibrosis model; type: in vivo
Description: ICR male mice are anesthetized under pentobarbital (60 mg/kg, i.v.) anesthesia, the cervical region is shaved and the skin is incised for about 4 mm from under the larynx region along the median line. Next, the muscle layer covering upper trachea is peeled off to expose the trachea. Using a micro-syringe, physiological saline or bleomycin hydrochloride (0.03 mg/animal, manufactured by Nippon Kayaku) is administered tracheally (50 μl/animal) from the tracheal smooth muscle region between cricoid cartilage. After the administration, the incised region is closed and antibiotics are administered into the thigh intramuscularly in order to prevent infection. IGF-1R inhibitor, e.g., antibody to IGF-1 receptor (A12). […] Controls included bleomycin-treated animals receiving saline injection in place of A12 antibody. At various time points after the induction, each animal is sacrificed by exsanguination under pentobarbital anesthesia, and lung tissue is excised to monitor for differences in lung injury in the test versus control groups. In addition, bronchoalveolar lavage is performed, with analysis of the resulting fluid for differences in total protein, cytokines, inflammatory cells and fibroblasts or in the responsiveness of such cells to, e.g., apoptotic or other stimuli. Lung hydroxyproline content is measured as a measure of fibrosis. Changes in lung tissue histology are also monitored. Further details on the processing of lung tissue for analysis include the following. At time of sacrifice, the right main stem bronchus was tied off and the left lung was isolated and lavaged with 1 ml of PBS containing 0.6 mM EDTA warmed to 37° C. Bronchoalveolar lavage fluid (BALF) total cell count was determined by trypan blue exclusion and cell differential was determined on Diff quick (Dade Behring Ag, Düdingen, Switzerland) stained cytospins. Following brief centrifugation, cell-free supernatants were used for measurement of total protein by Bio-Rad protein assay (Bio-Rad laboratories, Hercules, Calif.). […] Hydroxyproline concentration was extrapolated from a standard curve. The right lung was inflated and fixed with 4% formaldehyde at 25 cmH2O pressure for histologic evaluation.
For these experiments, the bleomycin-induced lung injury was initiated in the manner described herein above, and the A12 anti-IGF-1R antibody was used for receptor blockade. Mice treated with bleomycin were treated with a monoclonal antibody against the IGF-1 receptor (A12) or vehicle.
For statistical analyses of the data, means of more than two groups of data were compared using one-way analysis of variance (ANOVA) with Tukey's honestly significant difference (HSD) post hoc test. In some cases, Kaplan-Meier Survival Analysis was performed using JMP IN v5.1; statistical significance was determined using log rank test.

[2] = tested on: primary mouse lung fibroblasts; experiment: migration assay (FluoroBlok transwell); type: cell-based, C57BL6 mice; conditions: IGF-1 100 ng/ml; A12 40 μg/ml preincubation
Description: Mouse lung fibroblasts were plated FluoroBlok transwell filters overnight, then IGF-1 (100 ng/ml), serum free media (negative control), 10% serum (positive control) was added to lower chamber. Some cells were preincubated with the blocking antibody to IGF-1R (A12, 40 μg/ml) before the addition of IGF-1. Cells were allowed to migrate through membrane for 4 hours @ 37° C. Migrated cells were counted with Fluorescent microscope. Each experiments was done in triplicate and repeated at least three times. Average cell count ±SD are presented.
For migration assays, primary mouse lung fibroblasts (50,000 cells/well) were plated in serum-free medium overnight on Fluoroblok transwell filters (8 μm pores, HTS FluoroBlok™ 24-Multiwell Insert System, BD Bioscience, Bedford, Mass.) pre-coated with fibronectin (50 μg/ml). Fluoroblok microporous membranes are specifically designed to detect by fluorescence only cells below the surface membrane. IGF-1 (100 ng/ml), 10% FBS (positive control) or serum-free media (negative control) was added to lower chamber. In some experiments, cells were preincubated with the blocking antibody to IGF-1R (A12, 40 μg/ml), for 1 hour. After 4 hours of migration, filters were fixed with formaldehyde and stained with DAPI (4′6-Diamidine-2′-phenylindole dihydrochloride, Roche, Indianapolis, Ind.). Migrated cells were counted in three predesignated fields for each filter. All experiments were done in triplicate and repeated at least three times.

## A12: Function blocking antibody to the human type 1 IGF receptor, gift from ImClone Systems
[1]; d14, vs vehicle
  TUNEL-positive (apoptotic) cells in lung: increase in TUNEL-positive cells
[1]; day 28, vs vehicle
  TUNEL-positive (apoptotic) cells in lung: fewer apoptotic cells
bleomycin-treated mice; 7-14 days post-bleomycin, A12 40 mg/kg i.p. vs saline
  proportion of mice surviving: significantly greater
bleomycin-treated mice; 28 days, vs saline, p=0.16
  BALF total protein concentration: trend towards decreased BALF protein concentration
bleomycin-treated mice; by d14, bleomycin-treated mice
  weight loss: 20%
bleomycin-treated mice; day 7 and day 14, vs saline
  lung hydroxyproline content (fibrosis): no significant differences
bleomycin-treated mice; day 14, vs saline
  lung histology: Only subtle histological differences; also recorded: qualitatively less fibrosis
bleomycin-treated mice; day 28, vs saline
  lung histology: Reduced evidence of fibrosis; also recorded: better preservation of lung architecture and lung size, and fewer areas of fibrosis
bleomycin-treated mice; day 28, vs saline control (p=0.03) or d14 (p=0.001)
  lung hydroxyproline content (fibrosis): significantly lower lung hydroxyproline levels; also recorded: significantly less hydroxyproline
bleomycin-treated mice; days 7 and 14, vs saline
  BALF total protein concentration: no significant difference; also recorded: no difference in BALF protein concentration
bleomycin-treated mice; n=24 per group, p=0.01 vs saline control
  survival (Kaplan-Meier): statistically significant survival benefit
bleomycin-treated mice; vs saline
  BALF differential cell count: no significant difference; also recorded: no difference in the cell differential
  BALF total cell count: no significant difference; also recorded: not statistically different
bleomycin-treated mice; vs saline control
  respiratory or systemic distress by body condition scoring: less evidence of respiratory or systemic distress
[2]
  effect on IGF-1-induced migration: inhibited; also recorded: abrogated the increased migration
